Tests used:
Assay type in all cases: cell-based
[1] = test system: Mia-Pa-Ca-2 cells; test: Protein profile (SDS-PAGE) of treated pancreatic cancer cells; settings: Mw 1:500, cisplatin 5 μg/ml, paclitaxel 150 μg/ml, gemcitabine 800 nm; serum free media, 37° C.; vs untreated cell profile
Method: (§1) The Mia-Pa-Ca-2 cells were treated with Mw Cells in ratio 1:500, cisplatin at 5 μg/ml, paclitaxel at 150 μg/ml, and gemcitabine at 800 nm. The treatment was carried out in serum free media at 37° C. The cells were lysed and SDS-PAGE was run to obtain proteomic profile. Thus obtained profiles were overlapped with the untreated cell protein profile. The protein profile was noticed for each treatment. The differently expressed protein was identified at 45 KDa.
45 KDa protein is commonly over expressed protein when pancreatic cancer cells are treated with Mw, cisplatin, paclitaxel, gemcitabine, or combination there of.

[2] = test system: B16 melanoma cells; test: Protein profile (SDS-PAGE) of treated melanoma cells; settings: cisplatin 5 μg/ml, paclitaxel 150 μg/ml, gemcitabine 800 nm; serum free media, 37° C.; vs untreated cell profile
Method: as §1, with “B16 melanoma” for “Mia-Pa-Ca-2”, “with,” for “with Mw Cells in ratio 1:500,”, “μg/ml,and” for “μg/ml, and”, “36” for “45”
36 KDa protein is commonly expressed protein when melanoma cells are treated with, cisplatin, paclitaxel, gemcitabine, or combination there of.

[3] = test system: Lung cancer cell lines (A549 and L132); test: Protein profile (SDS PAGE and Western blot) of Mw treated lung cancer cell lines; settings: Mw/cells 1:100, 4 hours at 37° C.; vs untreated cell profile
Method: Different Lung cancer cell lines (A549 and L132) were treated with Mw/cells in the ratio of 1:100. Each treatment group contained 4×10E6 cells. Cells treated with Mw were incubated for 4 hours at 37° C. After treatment, cells were pelleted and supernatant was discarded. Cells were then resuspended in DPBS (400 μl). Cells were then sonicated for 15 minutes with pulse of 10 seconds on and 20 seconds off. The lysate obtained was estimated for the protein content using BCA Protein assay and protein was normalized to load 30 μg protein in each well. This was followed by 12% reducing SDS PAGE and Western blot analysis to obtain protein profile and humoral response. Thus obtained profile was compared with untreated cell protein profile.

Molecule | commonly over expressed protein after treatment (SDS-PAGE band) [1] [KDa] | commonly expressed protein after treatment (SDS-PAGE band) [2] [KDa] | common protein in both treated cell lines [3] [KDa]
N.N.[Cl][Pt][Cl] [cisplatin] | 45 | 36 | –
Nc1ccn([C@@H]2O[C@H](CO)[C@@H](O)C2(F)F)c(=O)n1 [gemcitabine] | 45 | 36 | –
CC(=O)O[C@H]1C(=O)[C@@]2(C)[C@H]([C@H](OC(=O)c3ccccc3)[C@]3(O)C[C@H](OC(=O)[C@H](O)[C@@H](NC(=O)c4ccccc4)c4ccccc4)C(C)=C1C3(C)C)[C@]1(OC(C)=O)CO[C@@H]1C[C@@H]2O [paclitaxel] | 45 | 36 | –
Mycobacterium w [Mw] | 45 | – | 43

Source: patent publication US9714275B2, “Cancer antigen” (Cadila Pharmaceuticals Ltd., priority 2011, dated 2017)
